Test results from publication PMC12212144, “The VanS sensor histidine kinase from type-B vancomycin-resistant enterococci recognizes vancomycin directly” (The Journal of Biological Chemistry, 2025).

Experiments:
[1] = molecular target: T1, cVanSB (cytosolic domain of VanSB) (Enterococcus faecalis, UniProt Q47745); assay: autophosphorylation with ATPγS, anti-thiophosphohistidine (PNBM) Western blot; format: biochemical; conditions: 1 mM ATPγS, 10 mM MgCl2, pH 7.4; not affected by vancomycin
T1 construct: cytosolic domain M159-L447, C-terminal His6 (pETCH), expressed in E. coli
T1 sequence (Q47745 159-447): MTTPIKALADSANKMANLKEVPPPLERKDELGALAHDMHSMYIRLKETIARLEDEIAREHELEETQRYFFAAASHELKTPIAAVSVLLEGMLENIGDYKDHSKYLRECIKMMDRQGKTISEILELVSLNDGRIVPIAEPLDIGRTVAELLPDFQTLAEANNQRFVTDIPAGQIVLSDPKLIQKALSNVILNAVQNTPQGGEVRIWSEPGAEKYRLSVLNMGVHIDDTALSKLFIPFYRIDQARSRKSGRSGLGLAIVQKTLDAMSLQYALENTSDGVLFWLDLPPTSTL

[2] = molecular target: T2, single-copy VanSB periplasmic sensor domain (Enterococcus faecalis, UniProt Q47745); assay: fluorescence anisotropy; format: binding; parameters: periplasmic sensor domain Q31-G132, single copy; expressed in E. coli as TEV-cleavable 6xHis-MBP fusion, tag removed; conditions: labelled compound, 100 nM; 20 mM Tris pH 7.5, 100 mM NaCl, 0.01% Triton X-100, room temperature
T2 sequence (Q47745 31-132): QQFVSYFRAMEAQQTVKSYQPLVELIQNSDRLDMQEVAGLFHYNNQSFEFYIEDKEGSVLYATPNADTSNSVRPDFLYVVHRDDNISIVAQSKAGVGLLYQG

[3] = molecular target: T3, tandem VanSB periplasmic sensor domain (Enterococcus faecalis, UniProt Q47745); assay: fluorescence anisotropy; format: binding; parameters: two copies of periplasmic domain Q31-G132 in one polypeptide joined by GSGGS linker; expressed in E. coli as TEV-cleavable 6xHis-MBP fusion, tag removed; conditions: labelled compound, 100 nM; 20 mM Tris pH 7.5, 100 mM NaCl, 0.01% Triton X-100, room temperature
T3 sequence (Q47745 31-132): as above

[4] = molecular target: full-length VanSB (in nanodiscs) (Enterococcus faecalis, UniProt Q47745); assay: biochemical
full-length VanSB (in nanodiscs), sequence (Q47745 whole entry, the tested form may be a part): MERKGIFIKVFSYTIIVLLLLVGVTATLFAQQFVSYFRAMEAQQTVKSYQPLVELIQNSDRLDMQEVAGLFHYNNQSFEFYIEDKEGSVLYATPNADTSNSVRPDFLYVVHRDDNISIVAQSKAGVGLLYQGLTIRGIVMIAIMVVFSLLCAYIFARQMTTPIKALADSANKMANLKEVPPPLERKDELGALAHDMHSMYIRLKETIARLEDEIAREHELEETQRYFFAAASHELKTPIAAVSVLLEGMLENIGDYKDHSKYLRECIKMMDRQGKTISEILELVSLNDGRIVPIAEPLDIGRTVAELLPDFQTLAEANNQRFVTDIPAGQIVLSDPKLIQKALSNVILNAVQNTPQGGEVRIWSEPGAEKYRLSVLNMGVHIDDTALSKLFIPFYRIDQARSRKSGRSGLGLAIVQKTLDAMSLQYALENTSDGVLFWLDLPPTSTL

[5] = molecular target: T2, single-copy VanSB periplasmic sensor domain; assay: biochemical
[6] = molecular target: T3, tandem VanSB periplasmic sensor domain; assay: biochemical

Nc1ncnc2c1ncn2[C@@H]1O[C@H](COP(=O)(O)OP(=O)(O)OP(O)(O)=S)[C@@H](O)[C@H]1O [ATPγS]
autophosphorylation with ATPγS, anti-thiophosphohistidine (PNBM) Western blot [1]: autophosphorylation time course for full-length VanSB (reconstituted in nanodiscs) and its cytosolic domain

CN[C@H](CC(C)C)C(=O)N[C@H]1C(=O)N[C@@H](CC(N)=O)C(=O)N[C@H]2C(=O)N[C@H]3C(=O)N[C@H](C(=O)N[C@H](C(=O)O)c4cc(O)cc(O)c4-c4cc3ccc4O)[C@H](O)c3ccc(c(Cl)c3)Oc3cc2cc(c3O[C@@H]2O[C@H](CO)[C@@H](O)[C@H](O)[C@H]2O[C@H]2C[C@](C)(NC(=O)CCc3ccc4n3[B-](F)(F)[N+]3=C(C)C=C(C)C3=C4)[C@H](O)[C@H](C)O2)Oc2ccc(cc2Cl)[C@H]1O [BODIPY-FL-vancomycin]
Kd [2]: 20.3 µM | Kd [3]: 10.7 µM

AF488-vancomycin
Kd [3]: 11 µM

CN[C@H](CC(C)C)C(=O)N[C@H]1C(=O)N[C@@H](CC(N)=O)C(=O)N[C@H]2C(=O)N[C@H]3C(=O)N[C@H](C(=O)N[C@H](C(=O)O)c4cc(O)cc(O)c4-c4cc3ccc4O)[C@H](O)c3ccc(c(Cl)c3)Oc3cc2cc(c3O[C@@H]2O[C@H](CO)[C@@H](O)[C@H](O)[C@H]2O[C@H]2C[C@](C)(N)[C@H](O)[C@H](C)O2)Oc2ccc(cc2Cl)[C@H]1O [vancomycin]
EC50 [4]: 43 ± 12.5 µM | Kd [5]: 20.7 µM | Kd [6]: 11 µM
